# What was measured:
# Test in all cases: scanMax kinase panel (Eurofins)
# Format in all cases: binding
# [1] = target: T1, ABL1(E255K)-phosphorylated (Homo sapiens, UniProt P00519, E255K); settings: read-out: % control
# T1 construct: purchased Eurofins
# Protocol: (§1) The following assay method was performed to evaluate the inhibitory activities of a compound according to the present invention with respect to various enzymes. […] The compound was applied to the enzyme at a concentration of 1 μM, dissolved in DMSO, and the % control was determined according to Equation 1 below.
# (§2) Here, the positive control refers to a compound corresponding to 0% control, and the negative control refers to a compound corresponding to 100% control.
# [2] = target: T2, ABL1(F317L)-phosphorylated (Homo sapiens, UniProt P00519, F317L); settings: read-out: % control
# T2 construct: purchased Eurofins
# Protocol: as §1, §2
# [3] = target: T3, ABL1(Q252H)-nonphosphorylated (Homo sapiens, UniProt P00519, Q252H); settings: read-out: % control
# T3 construct: purchased Eurofins
# Protocol: as §1, §2
# [4] = target: T4, ABL1(T315I)-phosphorylated (Homo sapiens, UniProt P00519, T315I); settings: read-out: % control
# T4 construct: purchased Eurofins
# Protocol: as §1, §2
# [5] = target: T5, ARK5 (Homo sapiens, UniProt O60285); settings: ARK5, 1 μM; read-out: % control
# T5 construct: purchased Eurofins
# Protocol: as §1, §2
# [6] = target: T6, AURKB (Homo sapiens, UniProt Q96GD4); settings: read-out: % control
# T6 construct: purchased Eurofins
# Protocol: as §1, §2
# [7] = target: T7, AURKC (Homo sapiens, UniProt Q9UQB9); settings: read-out: % control
# T7 construct: purchased Eurofins
# Protocol: as §1, §2
# [8] = target: T8, CDK4-cyclinD3 (Homo sapiens, UniProt P11802); settings: CDK4-cyclinD3, 1 μM; read-out: % control
# T8 construct: purchased Eurofins scanMax® kinase panel
# Protocol: as §1, §2
# [9] = target: T9, CDK7 (Homo sapiens, UniProt P50613); settings: CDK7, 1 μM; read-out: % control
# T9 construct: purchased Eurofins scanMax® kinase panel
# Protocol: as §1, §2
# [10] = target: T10, DYRK2 (Homo sapiens, UniProt Q92630); settings: DYRK2, 1 μM; read-out: % control
# T10 construct: purchased Eurofins scanMax® kinase panel
# Protocol: as §1, §2
# [11] = target: T11, ERK3 (Homo sapiens, UniProt Q16659); settings: ERK3, 1 μM; read-out: % control
# T11 construct: purchased Eurofins scanMax® kinase panel
# Protocol: as §1, §2
# [12] = target: T12, ERK8 (Homo sapiens, UniProt Q8TD08); settings: ERK8, 1 μM; read-out: % control
# T12 construct: purchased Eurofins scanMax® kinase panel
# Protocol: as §1, §2
# [13] = target: T13, GSK3A (Homo sapiens, UniProt P49840); settings: read-out: % control
# T13 construct: purchased Eurofins scanMax® kinase panel
# Protocol: as §1, §2
# [14] = target: T14, JAK2(JH1domain-catalytic) (Homo sapiens, UniProt O60674); settings: read-out: % control
# T14 construct: JAK2(JH1domain-catalytic); purchased Eurofins
# Protocol: as §1, §2
# [15] = target: T15, JAKI(JH1domain-catalytic) (Homo sapiens, UniProt P23458); settings: read-out: % control
# T15 construct: JAKI(JH1domain-catalytic); purchased Eurofins
# Protocol: as §1, §2
# [16] = target: T16, KIT (Homo sapiens, UniProt P10721); settings: read-out: % control
# T16 construct: purchased Eurofins
# Protocol: as §1, §2
# [17] = target: T17, KIT(A829P) (Homo sapiens, UniProt P10721, A829P); settings: read-out: % control
# T17 construct: purchased Eurofins
# Protocol: as §1, §2
# [18] = target: T18, KIT(L576P) (Homo sapiens, UniProt P10721, L576P); settings: read-out: % control
# T18 construct: purchased Eurofins
# Protocol: as §1, §2
# [19] = target: T19, KIT(V559D, T670I) (Homo sapiens, UniProt P10721, T670I/V559D); settings: read-out: % control
# T19 construct: purchased Eurofins
# Protocol: as §1, §2
# [20] = target: T20, KIT(V559D, V654A) (Homo sapiens, UniProt P10721, V559D/V654A); settings: read-out: % control
# T20 construct: purchased Eurofins
# Protocol: as §1, §2
# [21] = target: T21, MAP3K1 (Homo sapiens, UniProt Q13233); settings: MAP3K1, 1 μM; read-out: % control
# T21 construct: purchased Eurofins
# Protocol: as §1, §2
# [22] = target: T22, MAP3K2 (Homo sapiens, UniProt Q9Y2U5); settings: MAP3K2, 1 μM; read-out: % control
# T22 construct: purchased Eurofins
# Protocol: as §1, §2
# [23] = target: T23, MEK4 (Homo sapiens, UniProt P45985); settings: MEK4, 1 μM; read-out: % control
# T23 construct: purchased Eurofins
# Protocol: as §1, §2
# [24] = target: T24, PAK3 (Homo sapiens, UniProt O75914); settings: PAK3, 1 μM; read-out: % control
# T24 construct: purchased Eurofins scanMax kinase panel
# Protocol: as §1, §2
# [25] = test system: PAK5; settings: PAK5, 1 μM
# Protocol: as §1, §2
# [26] = target: T25, PAK6 (Homo sapiens, UniProt Q9NQU5); settings: PAK6, 1 μM; read-out: % control
# T25 construct: purchased Eurofins scanMax kinase panel
# Protocol: as §1, §2
# [27] = target: T26, PAKI (Homo sapiens, UniProt Q13153); settings: read-out: % control
# T26 construct: purchased Eurofins scanMax kinase panel
# Protocol: as §1, §2
# [28] = target: T27, PIM1 (Homo sapiens, UniProt P11309); settings: PIM1, 1 μM; read-out: % control
# T27 construct: purchased Eurofins scanMax kinase panel
# Protocol: as §1, §2
# [29] = target: T28, RET (Homo sapiens, UniProt P07949); settings: read-out: % control
# T28 construct: purchased Eurofins scanMax kinase panel
# Protocol: as §1, §2
# [30] = target: T29, RET(M918T) (Homo sapiens, UniProt P07949, M918T); settings: read-out: % control
# T29 construct: purchased Eurofins scanMax kinase panel
# Protocol: as §1, §2
# [31] = target: T30, RET(V804L) (Homo sapiens, UniProt P07949, V804L); settings: read-out: % control
# T30 construct: purchased Eurofins scanMax kinase panel
# Protocol: as §1, §2
# [32] = target: T31, ROCK2 (Homo sapiens, UniProt O75116); settings: ROCK2, 1 μM; read-out: % control
# T31 construct: purchased Eurofins scanMax kinase panel
# Protocol: as §1, §2
# [33] = target: T32, SRC (Homo sapiens, UniProt P12931); settings: read-out: % control
# T32 construct: purchased Eurofins scanMax kinase panel
# Protocol: as §1, §2
# [34] = target: T33, TRKA (Homo sapiens, UniProt P04629); settings: read-out: % control
# T33 construct: purchased Eurofins scanMax kinase panel
# Protocol: as §1, §2
# T8 sequence (P11802 whole entry): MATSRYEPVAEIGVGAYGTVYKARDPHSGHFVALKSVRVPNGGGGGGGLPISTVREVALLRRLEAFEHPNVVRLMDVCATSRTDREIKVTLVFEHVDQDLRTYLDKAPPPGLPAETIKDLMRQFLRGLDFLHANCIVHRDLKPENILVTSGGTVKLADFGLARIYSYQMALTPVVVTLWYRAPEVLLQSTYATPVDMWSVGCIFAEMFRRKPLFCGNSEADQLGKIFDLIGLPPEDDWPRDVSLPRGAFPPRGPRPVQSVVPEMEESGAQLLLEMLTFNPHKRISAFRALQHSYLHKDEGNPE
# T8 sequence (P30281 whole entry partner): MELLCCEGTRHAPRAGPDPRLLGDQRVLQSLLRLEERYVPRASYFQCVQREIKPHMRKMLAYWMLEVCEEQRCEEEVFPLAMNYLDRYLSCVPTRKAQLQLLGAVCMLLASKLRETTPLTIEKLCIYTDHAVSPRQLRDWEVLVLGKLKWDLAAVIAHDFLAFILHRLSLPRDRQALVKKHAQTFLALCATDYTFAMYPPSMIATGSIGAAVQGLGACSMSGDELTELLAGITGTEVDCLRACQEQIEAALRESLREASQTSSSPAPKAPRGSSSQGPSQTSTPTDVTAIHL
# T24 sequence (O75914 whole entry): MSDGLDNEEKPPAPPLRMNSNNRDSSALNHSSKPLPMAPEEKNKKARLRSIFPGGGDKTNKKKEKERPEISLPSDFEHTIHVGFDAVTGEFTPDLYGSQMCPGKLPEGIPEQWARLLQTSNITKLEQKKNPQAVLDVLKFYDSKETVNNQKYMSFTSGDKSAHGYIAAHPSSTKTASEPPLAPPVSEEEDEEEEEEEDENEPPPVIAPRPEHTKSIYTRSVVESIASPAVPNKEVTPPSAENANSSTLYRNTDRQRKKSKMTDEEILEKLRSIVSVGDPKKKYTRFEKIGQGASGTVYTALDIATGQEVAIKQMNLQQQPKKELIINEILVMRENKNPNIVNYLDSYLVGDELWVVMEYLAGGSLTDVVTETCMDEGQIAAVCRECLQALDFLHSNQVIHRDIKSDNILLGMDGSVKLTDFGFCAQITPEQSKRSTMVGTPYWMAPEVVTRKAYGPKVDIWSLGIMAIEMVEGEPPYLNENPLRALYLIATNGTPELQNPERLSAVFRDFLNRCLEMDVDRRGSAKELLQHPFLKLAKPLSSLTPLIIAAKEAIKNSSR
# T30 sequence (P07949 29-1114 V804L): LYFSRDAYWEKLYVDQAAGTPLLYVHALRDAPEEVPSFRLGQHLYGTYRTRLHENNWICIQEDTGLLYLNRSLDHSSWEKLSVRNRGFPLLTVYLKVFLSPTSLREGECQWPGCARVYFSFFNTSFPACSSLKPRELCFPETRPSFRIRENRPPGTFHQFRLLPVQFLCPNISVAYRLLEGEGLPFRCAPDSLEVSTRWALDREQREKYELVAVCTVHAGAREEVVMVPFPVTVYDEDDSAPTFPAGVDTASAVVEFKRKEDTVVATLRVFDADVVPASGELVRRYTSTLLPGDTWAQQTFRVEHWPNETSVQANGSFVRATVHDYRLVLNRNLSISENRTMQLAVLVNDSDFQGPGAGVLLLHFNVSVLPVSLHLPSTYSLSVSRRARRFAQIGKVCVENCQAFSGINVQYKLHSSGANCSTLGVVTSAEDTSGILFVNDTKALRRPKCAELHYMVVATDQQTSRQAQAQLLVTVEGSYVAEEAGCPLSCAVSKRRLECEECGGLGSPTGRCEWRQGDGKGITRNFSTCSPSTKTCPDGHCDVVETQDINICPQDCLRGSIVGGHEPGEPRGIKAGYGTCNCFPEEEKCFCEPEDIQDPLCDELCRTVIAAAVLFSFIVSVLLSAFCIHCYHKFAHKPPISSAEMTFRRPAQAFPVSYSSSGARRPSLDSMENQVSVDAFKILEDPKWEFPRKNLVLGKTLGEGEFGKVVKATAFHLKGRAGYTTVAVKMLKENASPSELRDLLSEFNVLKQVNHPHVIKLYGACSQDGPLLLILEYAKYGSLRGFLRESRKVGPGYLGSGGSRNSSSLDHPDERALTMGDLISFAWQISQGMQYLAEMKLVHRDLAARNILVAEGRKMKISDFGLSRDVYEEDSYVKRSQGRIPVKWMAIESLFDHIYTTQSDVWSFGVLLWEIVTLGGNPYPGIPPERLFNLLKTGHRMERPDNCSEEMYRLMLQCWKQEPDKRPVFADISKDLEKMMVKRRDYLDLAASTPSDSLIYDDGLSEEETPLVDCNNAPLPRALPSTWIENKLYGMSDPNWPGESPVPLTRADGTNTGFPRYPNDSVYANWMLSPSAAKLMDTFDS
# T16 sequence (P10721 26-976): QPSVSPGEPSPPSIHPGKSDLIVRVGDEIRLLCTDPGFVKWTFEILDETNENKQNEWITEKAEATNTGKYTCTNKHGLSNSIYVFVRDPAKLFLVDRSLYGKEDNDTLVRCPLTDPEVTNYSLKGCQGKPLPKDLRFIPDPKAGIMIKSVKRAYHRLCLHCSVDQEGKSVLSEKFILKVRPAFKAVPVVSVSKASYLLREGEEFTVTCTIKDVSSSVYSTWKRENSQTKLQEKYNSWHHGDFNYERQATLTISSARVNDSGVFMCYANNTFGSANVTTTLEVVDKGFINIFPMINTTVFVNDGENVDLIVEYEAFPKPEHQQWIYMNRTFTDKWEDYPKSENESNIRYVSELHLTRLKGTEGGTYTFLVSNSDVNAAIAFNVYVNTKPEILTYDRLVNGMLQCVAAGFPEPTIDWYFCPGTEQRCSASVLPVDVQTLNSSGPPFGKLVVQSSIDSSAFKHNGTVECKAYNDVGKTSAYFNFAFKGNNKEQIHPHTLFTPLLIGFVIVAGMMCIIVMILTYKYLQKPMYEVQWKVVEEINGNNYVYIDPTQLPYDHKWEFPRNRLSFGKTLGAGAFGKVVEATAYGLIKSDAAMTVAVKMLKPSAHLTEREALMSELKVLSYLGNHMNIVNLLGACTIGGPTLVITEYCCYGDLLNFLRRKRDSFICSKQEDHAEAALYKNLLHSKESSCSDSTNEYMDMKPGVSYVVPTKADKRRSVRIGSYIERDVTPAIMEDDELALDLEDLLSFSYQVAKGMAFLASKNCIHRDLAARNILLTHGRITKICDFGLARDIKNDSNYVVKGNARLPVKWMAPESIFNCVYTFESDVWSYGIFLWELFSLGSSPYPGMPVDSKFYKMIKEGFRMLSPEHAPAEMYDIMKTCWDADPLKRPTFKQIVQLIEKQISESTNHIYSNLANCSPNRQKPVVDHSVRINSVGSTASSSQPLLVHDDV
# T15 sequence (P23458 875-1153 limits assumed): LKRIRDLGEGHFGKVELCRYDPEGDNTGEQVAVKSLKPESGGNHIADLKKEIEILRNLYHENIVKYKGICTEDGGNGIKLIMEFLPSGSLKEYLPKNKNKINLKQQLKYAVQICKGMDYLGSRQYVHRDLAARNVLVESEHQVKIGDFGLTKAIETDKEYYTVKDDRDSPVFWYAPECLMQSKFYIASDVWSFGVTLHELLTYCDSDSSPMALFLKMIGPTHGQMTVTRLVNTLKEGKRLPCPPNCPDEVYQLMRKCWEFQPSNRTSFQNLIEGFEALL
# T5 sequence (O60285 whole entry): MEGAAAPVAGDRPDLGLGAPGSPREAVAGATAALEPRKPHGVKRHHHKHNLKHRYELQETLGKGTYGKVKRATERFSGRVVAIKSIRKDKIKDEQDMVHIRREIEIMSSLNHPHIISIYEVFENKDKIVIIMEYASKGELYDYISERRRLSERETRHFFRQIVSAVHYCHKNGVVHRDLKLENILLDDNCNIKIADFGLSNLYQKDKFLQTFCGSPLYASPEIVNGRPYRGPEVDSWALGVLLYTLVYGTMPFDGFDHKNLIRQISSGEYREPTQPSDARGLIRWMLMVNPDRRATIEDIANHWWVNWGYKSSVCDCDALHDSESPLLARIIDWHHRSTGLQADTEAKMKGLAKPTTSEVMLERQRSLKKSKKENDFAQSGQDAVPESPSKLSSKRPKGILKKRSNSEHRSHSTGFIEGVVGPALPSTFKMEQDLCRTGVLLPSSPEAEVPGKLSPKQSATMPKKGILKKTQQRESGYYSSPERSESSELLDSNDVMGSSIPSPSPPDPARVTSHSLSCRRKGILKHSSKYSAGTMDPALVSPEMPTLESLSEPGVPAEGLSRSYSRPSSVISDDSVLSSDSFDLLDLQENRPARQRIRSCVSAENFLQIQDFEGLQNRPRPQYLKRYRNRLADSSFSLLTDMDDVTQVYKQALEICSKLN
# T11 sequence (Q16659 whole entry): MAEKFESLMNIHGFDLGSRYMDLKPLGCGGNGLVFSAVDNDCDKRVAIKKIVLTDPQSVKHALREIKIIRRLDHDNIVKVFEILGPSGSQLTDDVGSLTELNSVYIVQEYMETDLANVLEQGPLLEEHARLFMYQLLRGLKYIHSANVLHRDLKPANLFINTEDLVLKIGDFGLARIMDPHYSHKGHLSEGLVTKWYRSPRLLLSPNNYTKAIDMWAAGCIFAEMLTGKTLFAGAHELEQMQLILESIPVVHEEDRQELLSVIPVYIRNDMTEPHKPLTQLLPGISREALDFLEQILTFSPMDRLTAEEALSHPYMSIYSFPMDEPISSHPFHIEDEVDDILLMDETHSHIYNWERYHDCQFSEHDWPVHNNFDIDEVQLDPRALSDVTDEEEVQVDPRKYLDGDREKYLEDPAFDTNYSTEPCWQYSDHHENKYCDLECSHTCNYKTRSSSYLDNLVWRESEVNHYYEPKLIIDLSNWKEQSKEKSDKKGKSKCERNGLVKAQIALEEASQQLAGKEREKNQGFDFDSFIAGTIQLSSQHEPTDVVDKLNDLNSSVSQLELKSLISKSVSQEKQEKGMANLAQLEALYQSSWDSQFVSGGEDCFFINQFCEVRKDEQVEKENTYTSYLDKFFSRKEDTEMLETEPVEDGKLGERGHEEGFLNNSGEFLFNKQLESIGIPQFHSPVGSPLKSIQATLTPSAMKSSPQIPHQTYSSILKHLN
# T29 sequence (P07949 29-1114 M918T): as the sequence (P07949 29-1114 V804L) above, with L776V, M890T counted along it
# T19 sequence (P10721 26-976 V559D/T670I): as the sequence (P10721 26-976) above, with V534D, T645I counted along it
# T18 sequence (P10721 26-976 L576P): as the sequence (P10721 26-976) above, with L551P counted along it
# T17 sequence (P10721 26-976 A829P): as the sequence (P10721 26-976) above, with A804P counted along it
compound,measurement,setting,value
"COc1ccc2nc(-c3n[nH]c4ccc(C(=O)N[C@H]5CC[C@H](N)C5)cc34)[nH]c2c1 [Example 32, N-((1S,3S)-3-aminocyclopentyl)-3-(6-methoxy-1H-benzo[d]imidazol-2-yl)-1H-indazole-5-carboxamide]",remaining binding at 1 µM,[1],< 10%
same,remaining binding at 1 µM,[2],< 10%
same,remaining binding at 1 µM,[3],< 10%
same,remaining binding at 1 µM,[4],< 10%
same,remaining binding at 1 µM,[5],< 10%
same,remaining binding at 1 µM,[6],< 10%
same,remaining binding at 1 µM,[7],< 10%
same,remaining binding at 1 µM,[8],< 10%
same,remaining binding at 1 µM,[9],< 10%
same,remaining binding at 1 µM,[10],< 10%
same,remaining binding at 1 µM,[11],< 10%
same,remaining binding at 1 µM,[12],< 10%
same,remaining binding at 1 µM,[13],< 10%
same,remaining binding at 1 µM,[14],< 10%
same,remaining binding at 1 µM,[15],< 10%
same,remaining binding at 1 µM,[16],< 10%
same,remaining binding at 1 µM,[17],< 10%
same,remaining binding at 1 µM,[18],< 10%
same,remaining binding at 1 µM,[19],< 10%
same,remaining binding at 1 µM,[20],< 10%
same,remaining binding at 1 µM,[21],< 10%
same,remaining binding at 1 µM,[22],< 10%
same,remaining binding at 1 µM,[23],< 10%
same,remaining binding at 1 µM,[24],< 10%
same,% control,[25],less than 10 % control
same,remaining binding at 1 µM,[26],< 10%
same,remaining binding at 1 µM,[27],< 10%
same,remaining binding at 1 µM,[28],< 10%
same,remaining binding at 1 µM,[29],< 10%
same,remaining binding at 1 µM,[30],< 10%
same,remaining binding at 1 µM,[31],< 10%
same,remaining binding at 1 µM,[32],< 10%
same,remaining binding at 1 µM,[33],< 10%
same,remaining binding at 1 µM,[34],< 10%

# Source: patent US20260234129A1, “NOVEL IMIDAZOLE DERIVATIVE AND USE THEREOF” (PELEMED CO., LTD., priority 2023, published 2026)
